Measurements: ChEMBL document CHEMBL3779778, “Structure-based design and development of (benz)imidazole pyridones as JAK1-selective kinase inhibitors” (Bioorg Med Chem Lett, 2016)

Legend:
[1] = Dissociation constant, pKa of the compound; assay type: physicochemical
[2] = Intrinsic clearance in human liver microsomes; assay type: ADME; settings: read-out: CLH
[3] = Intrinsic clearance in human hepatocytes; assay type: ADME, cell-based, Hepatocyte; settings: read-out: CLH

| Structure (SMILES) | pKa [1] | CLint scaled [2] [mL/min/kg] | CLint scaled [3] [mL/min/kg] |
| --- | --- | --- | --- |
| O=c1[nH]ccc(N[C@H]2CC[C@@H](NCC(F)(F)F)CC2)c1-c1nc2ccccc2[nH]1 | 4.8 | – | – |
| O=c1[nH]ccc(N[C@H]2CC[C@@H](NCC(F)F)CC2)c1-c1nc2ccccc2[nH]1 | 6.6 | – | – |
| O=c1[nH]ccc(N[C@H]2CC[C@@H](NCCF)CC2)c1-c1nc2ccccc2[nH]1 | 8.8 | – | – |
| N[C@H]1CC[C@@H](Nc2cc[nH]c(=O)c2-c2nc3ccccc3[nH]2)CC1 | – | < 15 | 12 |

Further lines, results first:

| pKa [1] | CLint scaled [2] [mL/min/kg] | CLint scaled [3] [mL/min/kg] | Structure (SMILES) |
| --- | --- | --- | --- |
| 9.2 | – | – | COCCN[C@H]1CC[C@@H](Nc2cc[nH]c(=O)c2-c2nc3ccccc3[nH]2)CC1 |
| 10.5 | – | – | CCN[C@H]1CC[C@@H](Nc2cc[nH]c(=O)c2-c2nc3ccccc3[nH]2)CC1 |
